# Experiments:
# [1] = Visual appearance (flocculation) of test solutions; assay type: physicochemical; settings: enhancer stock added to CDP-Star RTU/NitroBlock II control solution
# Protocol: (§1) A variety of known enhancers of peroxidase activity were tested for their effect on the observed alkaline phosphatase activity in a dioxetane formulation containing the PBTBQ alkaline phosphatase enhancement agent. […] 10 μl of TBS served as a background control. 40 mM stock solutions as ws-PT, ws-PT-N-C4-S-C2Cl, and ws-PT Plus (CP-Br) were prepared in water. A 50 mM solution of DMAP was prepared in water. A 20 mM ws-PT Plus (MPA Cl) was prepared in water. 40 mM solutions of MPT and CPPT were prepared in methanol. (See Table 3 for acronym identification of these peroxidase enhancers, some of which are substantially water-soluble(ws).) The control solution was prepared by mixing 2.85 ml of CDP-Star RTU (Tropix Product No. MS100R) with 0.15 ml of NitroBlock II (Tropix Product No. LNX200). For the test solutions, 112 μl of the peroxidase enhancer stock solutions were added to 3 ml of the control solution in the case of the ws-PT, MPT, ws-PT-NC4S, ws-PT-Plus (CP-Br), or CPPT; for the ws-PT-Plus (MPS-C) 224 μl of the stock was added to 3 ml of the control solution; for the DMAP, 150 μl of the stock was added to 3 ml of the control solution; for the test solution containing DMAP and ws-PT, 150 μl of the DMAP stock and 112 μl of the ws-PT stock was added to 3 ml of the control solution.
# [2] = target: alkaline phosphatase (Bos taurus, UniProt P19111); assay: Effect of peroxidase enhancers on observed alkaline phosphatase activity in dioxetane formulation containing PBTBQ; assay type: biochemical; settings: for Response, Percent: 33.3 pg alkaline phosphatase, 30 minutes, net signal relative to control solution (CDP-Star plus Nitroblock II) set to 100%; for enhancement of the observed phosphatase activity: relative to control solution
# Sequence of alkaline phosphatase (P19111 20-506 limits assumed): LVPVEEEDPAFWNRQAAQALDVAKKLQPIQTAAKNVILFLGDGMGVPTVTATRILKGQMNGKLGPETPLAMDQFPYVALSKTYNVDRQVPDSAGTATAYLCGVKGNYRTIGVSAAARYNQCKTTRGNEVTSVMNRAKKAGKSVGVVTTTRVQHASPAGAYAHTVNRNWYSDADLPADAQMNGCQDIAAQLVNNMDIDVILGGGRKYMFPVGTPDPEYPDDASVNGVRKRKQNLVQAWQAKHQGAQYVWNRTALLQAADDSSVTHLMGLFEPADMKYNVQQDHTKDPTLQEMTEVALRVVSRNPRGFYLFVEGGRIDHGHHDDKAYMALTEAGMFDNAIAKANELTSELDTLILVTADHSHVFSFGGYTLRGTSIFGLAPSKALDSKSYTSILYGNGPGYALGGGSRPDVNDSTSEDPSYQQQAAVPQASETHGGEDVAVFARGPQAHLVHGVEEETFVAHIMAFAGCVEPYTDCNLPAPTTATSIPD
# Protocol: as §1
# To the wells of the microplate containing the alkaline phosphatase aliquots, the control and test formulations were added at 100 μl per well, mixed for approximately one minute, and allowed to react for 30 minutes at which time the chemiluminescent signal was measured on a Berthold EGG Luminometer using a 0.1 second integration time. Table 3 illustrates the relative signal intensities obtained using the response from the control solution set to 100%. The net signal of each solution (background subtracted) was used for these calculations. […] Consequently, the relative response factors for alkaline phosphatase and peroxidase activity to each other in the present invention can be modulated by the choice of the peroxidase enhancer used in the substrate solution formulation of this invention.
"Response, Percent [2] [%]",enhancement of the observed phosphatase activity [2],Compound,appearance of test solution [1]
85,–,"C[N+](C)(C)CCCN1c2ccccc2Sc2ccc(Cl)cc21.[Br-] [ws-PT Plus (CP—Br^−), [3-(2-chlorophenothiazin-10-yl)-propyl]trimethyl-ammonium bromide]",–
104,–,"O=C(O)CCCN1c2ccccc2Sc2ccccc21 [CPPT, 4-(phenothiazin-10-yl)butanoic acid]",–
218,significant enhancement,"O=S(=O)([O-])CCCCN1c2ccccc2Sc2ccc(Cl)cc21.[Na+] [ws-PT—N—C4S—C2—Cl, Sodium 4-(2-chlorophenothiazin-10-yl)butane-1-sulfonate]",–
70,–,"C[N+](C)(C)CCCN1c2ccccc2Sc2ccccc21.[Cl-] [ws-PT Plus (MPA^+Cl^−), Trimethyl-(3-phenothiazin-10-yl-propyl)ammonium chloride]",–
198,significant enhancement,"CN1c2ccccc2Sc2ccccc21 [MPT, 10-methyl-10H-phenothiazine]",visible flocculation

Compound,"Response, Percent [2] [%]",enhancement of the observed phosphatase activity [2],appearance of test solution [1]
"O=S(=O)([O-])CCCN1c2ccccc2Sc2ccccc21.[Na+] [ws-PT, Sodium (3-phenothiazine-10-yl)-propane-1-sulfonate]",207,significant enhancement,visible flocculation
"CNC.c1ccncc1 [DMAP, Dimethylamine pyridine]",99,–,–

# Reference: US6852503B1, “Compositions and methods for utilizing mixed substrate solutions of luminols and dioxetanes” (Pierce Biotechnology, Inc., priority 2001, dated 2005)
